Patent US10045939B2, “Unit doses, aerosols, kits, and methods for treating heart conditions by pulmonary administration” (InCarda Therapeutics, Inc., priority 2009, dated 2018)
Where a name gives a salt, the structure may show the parent alone. Read-outs that look alike come from different tables or passages of the source.

What was measured:
[1] = cited from earlier work
[2] = system: induced supraventricular tachycardia; experiment: Induced supraventricular tachycardia (SVT) model in anesthetized dogs, intratracheal (IT) vs intravenous administration; type: in vivo, dog; conditions: for cardiovascular effect when given intratracheally (summary): intratracheal, summary of study
Protocol: A venous catheter was placed in a peripheral vessel (i.e., cephalic) for administration of anesthetic(s). For anesthesia induction, all animals were given a combination of diazepam (˜0.5 mg/kg) and ketamine (˜10 mg/kg) intravenously through this venous catheter. Anesthesia was sustained until completion of the study with an intravenous infusion of pentobarbital (5-15 mg/kg/hr). Following induction, animals were endotracheally intubated and mechanically ventilated (˜12 breaths/min with a tidal volume of 200-300 mL).
Subsequently, a cut-down on a jugular vein permitted the introduction of a pacing lead into the right atrium. Similarly, for arterial pressure monitoring, a solid-state micromanometer catheter (Millar Instruments) was advanced into the aortic root via a cut-down over an artery (e.g., femoral, carotid). Transthoracic electrodes forming ECG lead II was placed. For vehicle/test article delivery, a 4F catheter was introduced through the trachea and wedged into a small airway, and a venous catheter was placed in a peripheral vessel (i.e., cephalic).
Following instrumentation/hemodynamic stabilization (for at least 15 minutes), right atrial pacing (5-10 V, 40 Hz, 2 ms pulses) was established in order to induce supraventricular tachycardia (SVT); pacing and SVT was sustained throughout the duration of the experiments. Approximately 5 minutes after onset of SVT and while monitoring ECG/arterial pressure continuously, the animals were administered three escalating doses (one at a time) of a test article; each dose was delivered as a bolus (˜3 mL) directly into a small airway through the intratracheal catheter (IT). Following dosing, the heart-rate (HR) and arterial pressure response were monitored for 15 minutes.
Subsequently (once the response to three IT doses had been recorded), hemodynamic recovery was allowed for approximately 30 minutes, and the electrocardiographic/hemodynamic response to the highest test-article dose was re-evaluated; however, for comparison purposes, this dose was delivered intravenously (IV).
Overall, two groups/test-articles were studied, and up to two animals were assigned to each group (n=2/group): one group received esmolol HCL (0.5-1.0 mg/kg, ESM), while the other received adenosine (0.25-1.0 mg/kg, ADN); only one test article was administered to per animal.

[3] = system: induced atrial fibrillation; experiment: Induced atrial fibrillation model in anesthetized dogs, intratracheal (IT) administration; type: in vivo, dog; conditions: for cardiovascular effect when given intratracheally (summary): summary of study; for conversion of atrial fibrillation to normal sinus rhythm: pulmonary (intratracheal/inhalation route)
Protocol: A venous catheter was placed in a peripheral vessel (i.e., cephalic) for administration of anesthetic. For anesthesia induction, all animals were given morphine sulfate (˜2 mg/kg) and a bolus of alpha chloralose (˜100 mg/kg) intravenously through the venous catheter. Anesthesia was sustained with alpha chloralose (35-75 mg/kg/hour IV), until completion of the study (<2 hours). Following induction, animals were endotracheally intubated and mechanically ventilated (˜12 breaths/minute with a tidal volume of 200-300 mL). Subsequently, a cut-down on a jugular vein permitted introduction of a pacing lead into the right atrium. Transthoracic electrodes forming ECG lead II were placed. For test/vehicle article delivery, a 4F catheter was introduced through the trachea and wedged into a small airway, and a venous catheter was placed in a peripheral vessel (i.e., cephalic). Following instrumentation and hemodynamic stabilization (for at least 15 minutes), phenylephrine was continuously infused (2 ug/kg/min IV) to elevate the systemic arterial pressure and increase vagal (parasympathetic) efferent activity for the duration of the study. Approximately 5 min after administration of this parasympathomimetic was started; the following experiments were performed: First, the right atrium was paced (20 V, 40 Hz, 4 ms pulse) for 15 minutes, and following pacing discontinuation, atrial fibrillation ensued. Approximately 3 minutes after pacing was stopped and atrial fibrillation was observed, the animals were given vehicle (˜3 mL) intra-tracheally (IT); the duration between dosing and, (if observed) the return to sinus rhythm and/or the ventricular rate was noted. Observations were made for up to 10 minutes. Subsequently, atrial fibrillation was re-established via 15-minute pacing cycle(s), as described above. Once pacing was discontinued and atrial fibrillation was observed/stable for 3 minutes, the animals were administered the vehicle or one of the test articles, delivered as a bolus (˜3 mL) directly into a small airway through the intratracheal catheter. Vehicle was only water. In the case of flecainide as the test article, the concentration was 15 mg of flecainide/3 ml of water. Following dosing, the duration between cessation of administration and, if observed, return to sinus rhythm and/or ventricular rate were noted; observations were made for up to 10 minutes.

physchem = type: physicochemical
Source text: To evaluate the solubilities of flecainide acetate and diltiazem hydrochloride in water and to evaluate the acceptability of taste and aftertaste of these two drugs for administration as liquid aerosols.

[4] = Preformulation: properties of solutions in water (pH, isotonicity, appearance); type: physicochemical
Protocol: To evaluate the solubilities of flecainide acetate and diltiazem hydrochloride in water and to evaluate the acceptability of taste and aftertaste of these two drugs for administration as liquid aerosols. The following solution strengths were prepared for taste evaluation: (1) diltiazem hydrochloride—50 mg/ml solution in distilled water; and (2) flecainide acetate—30 mg/ml solution in distilled water.

[5] = human, in vivo
Protocol: The following solution strengths were prepared for taste evaluation: (1) diltiazem hydrochloride—50 mg/ml solution in distilled water; and (2) flecainide acetate—30 mg/ml solution in distilled water.
The Aeroneb®GO device was used because it is a simple-to-use device developed specifically for patients who require respiratory therapy in and away from the home. The device can be used by patients of all ages (infant through adult) and aerosolizes solutions intended for inhalation. Aeroneb® Go works with either an AC wall controller or a battery pack, and can be cleaned with soap and water. More details about this device can be obtained at www.aerogen.com.
Number of subjects: 2 healthy male volunteers
Water was poured into the nebulizer cup, and the nebulizer was turned on. The visible cloud of aerosol generated when the nebulizer was turned on was treated as a qualitative aerosol standard.
About 1 ml of the 30 mg/ml solution was poured into the cup of the nebulizer. The nebulizer was turned on and the resulting aerosol was similar to but not as dense as the aerosol formed with the water alone.
The nebulizer was then placed in the mouth and switched on. Deep lung inhalation was performed through the nebulizer. About 40 μl (˜1.2 mg of flecainide acetate) of the test solution was inhaled. The inhaled dose was sub-therapeutic in nature as it was much less than the regular 100 mg administered as tablets. Flecainide acetate is also available as an IV injection in Europe as 10 mg/ml strength in 15 ml ampoules.
About 1 ml of the 50 mg/ml solution was poured into the cup of the nebulizer. The nebulizer was turned on and the resulting aerosol was similar to but not as dense as the aerosol formed with the water alone.
The nebulizer was then placed in the mouth and a switched on. Deep lung inhalation was performed through the nebulizer. About 40 μl (˜2 mg of diltiazem hydrochloride) of the test solution was inhaled. The inhaled dose was sub-therapeutic in nature as it was much less than the IV injection marketed in the U.S. as 5 mg/ml in 5 ml vials.

[6] = pulmonary dose 0.25 mg/kg body weight
[7] = pulmonary dose between 2-4 mg/kg body weight

CCCCCCCCCCCCCCCC(=O)OC[C@H](COP(=O)([O-])OCC[N+](C)(C)C)OC(=O)CCCCCCCCCCCCCCC [DPPC, dipalmitoylphosphatidylcholine]
solubility of the phospholipid in water [1]: about 10^−10 mol/L

Nc1ncnc2c1ncn2[C@@H]1O[C@H](CO)[C@@H](O)[C@H]1O [adenosine]
effect on the heart ([2]; administered via the lung): did not have any effect on the heart
cardiovascular effect when given intratracheally (summary) [2]: clear response was not observed

COc1ccc([C@@H]2Sc3ccccc3N(CCN(C)C)C(=O)[C@@H]2OC(C)=O)cc1.Cl [diltiazem, diltiazem hydrochloride]
mean arterial blood pressure (MAP) ([3]; dog, in vivo, 0.25 mg/kg): notable drop in mean arterial blood pressure
heart rate ([3]; inhalation route, dose not stated): reduced heart rate
cardiovascular effect when given intratracheally (summary) ([3]; intratracheal): clear cardiovascular effect
conversion of atrial fibrillation to normal sinus rhythm ([3]; dose not stated, hydrochloride): rapidly converted the Atrial Fibrillation to normal sinus rhythm
PQ interval [3, 6]: prolonged the PQ
heart rate [3, 6]: slowed down marginally
conversion of induced atrial fibrillation to normal sinus rhythm ([3]; pulmonary dose 0.25 mg/kg body weight, hydrochloride, 0.25 mg/kg): converted the induced atrial fibrillation to normal sinus rhythm
conversion of induced atrial fibrillation to normal sinus rhythm ([3]; pulmonary dose 0.25 mg/kg body weight, listed as diltiazem HCl, hydrochloride, 0.25 mg/kg): Afib converting
PR interval ([2]; IV or pulmonary route (0.25 mg/kg per FIGS. 14 and 15)): prolonged the PR interval
timing of the electrophysiological change ([2]; IV vs pulmonary): comparable between IV and pulmonary
Mean Arterial Pressure (MAP) ([2]; dog, in vivo, iv, 0.25 mg/kg): dropped significantly in both cases
comparison of pulmonary and IV routes ([2]; pulmonary vs IV (0.25 mg/kg per FIGS. 14 and 15)): comparable in all aspects
solubility (physchem): > 90 mg/mL
pH of solution in water ([4]; 3.5 mg/mL solution in water): 6.7
isotonicity of solution in water (% to isotonic) ([4]; 50 mg/mL in water): about 80%
appearance of solution ([4]; 50 mg/ml solution in distilled water): clear with no visible particulate matter
burning sensations in the mouth, throat, or lungs [5]: No burning sensations was felt in the mouth, throat, or lungs
visible adverse events [5]: No visible adverse events were observed

CN(CCOc1ccc(NS(C)(=O)=O)cc1)CCc1ccc(NS(C)(=O)=O)cc1 [dofetilide]
heart rate ([3]; escalating pulmonary doses of 10-40 mcg/kg body weight): minor reduction in heart rate
ventricular rate ([3]; intratracheal, dose not stated): marginally slowed the ventricular rate
cardiovascular effect when given intratracheally (summary) ([3]; intratracheal): probable effect

COC(=O)CCc1ccc(OCC(O)CNC(C)C)cc1 (stereo not drawn) [esmolol, esmolol HCL]
period of AV block (FIGS. 17, 18) ([2]; 0.5 mg/kg administered via the lung): AV block induced
period of AV block (FIG. 20) ([2]; 0.75 mg/kg administered via the lung): AV block induced
drop in MAP ([2]; delivered via the lung, any of the doses): did not cause a drop in MAP
cardiovascular effect when given intratracheally (summary) [2]: probable effect
PR intervals in the ECG traces ([2]; via the lung (IT), elevating doses): affecting the PR intervals
electrophysiological effects ([2]; via the lung (IT), higher dose 1.0 mg/kg): did not produce the same electrophysiological effects
AV block ([2]; via the lung (IT), lower doses): 2nd degree AV block

O=C(NCC1CCCCN1)c1cc(OCC(F)(F)F)ccc1OCC(F)(F)F (stereo not drawn) [flecainide, flecainide acetate]
conversion of Afib (ECG trace, FIG. 12) ([3]; 2 mg/kg body weight): Afib converting as soon as dosing occurred
conversion of Afib to normal sinus rhythm (ECG trace, FIG. 11) ([3]; 4 mg/kg body weight): Afib converting into normal sinus rhythm
cardiovascular effect when given intratracheally (summary) ([3]; intratracheal): clear cardiovascular effect
conversion of atrial fibrillation to normal sinus rhythm ([3]; dose not stated): rapidly converted the Atrial Fibrillation to normal sinus rhythm
adverse events such as proarrhythmia [3, 7]: Neither dogs exhibited any known adverse events such as proarrhythmia
conversion of induced atrial fibrillation to normal sinus rhythm [3, 7]: converted the induced atrial fibrillation to normal sinus rhythm
drop in mean arterial pressure [3, 7]: None to minimal drop in mean arterial pressure
ventricular rate ([3]; pulmonary, large doses): slower ventricular rates
solubility (physchem; water): ~30 mg/mL
pH of solution in water ([4]; 2.6 mg/mL solution in water): 5.0
isotonicity of solution in water (% to isotonic) ([4]; 30 mg/mL in water): about 50%
appearance of solution ([4]; 30 mg/ml solution in distilled water): clear with no visible particulate matter
burning sensations in the mouth, throat, or lungs [5]: No burning sensations was felt in the mouth, throat, or lungs
visible adverse events [5]: No visible adverse events were observed
